These results are taken from patent publication US20250325529A1, “INHIBITORS OF FATTY ACID BINDING PROTEINS (FABPs), METHODS OF USE AND METHODS OF MAKING” (Celloram, inc., priority 2024, published 2025).

One assay deals with FABP5 (Homo sapiens (Human), UniProt Q01469). Nature of the assay: Fluorescence (ANS) competition binding assay, FABP5. The settings on record: ANS displacement. The method in brief:
(§1)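 His-tagged FABPs were expressed in E. coli. Kd for ANS was first determined by titrating 2 μM protein with ANS and following fluorescence increase. Compounds then displaced ANS from 1:1 protein:ANS complexes, and Kd was derived from the competition EC50 and the ANS Kd.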

A further assay deals with FABP4 (Homo sapiens (Human), UniProt P15090). Nature of the assay: Fluorescence (ANS) competition binding assay, FABP4. The settings on record: ANS displacement. The method in brief:
as §1

The target in another assay is FABP3 (Homo sapiens (Human), UniProt P05413). Nature of the assay: Fluorescence (ANS) competition binding assay, FABP3. Particulars: ANS displacement. An outline of the steps: as §1
FABP3, sequence (P05413 whole entry, species assumed): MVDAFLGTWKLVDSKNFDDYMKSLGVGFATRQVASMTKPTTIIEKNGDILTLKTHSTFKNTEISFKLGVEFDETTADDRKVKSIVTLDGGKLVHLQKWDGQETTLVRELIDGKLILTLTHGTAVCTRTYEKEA
The next assay has as its target FABP7 (Homo sapiens (Human), UniProt O15540). Nature of the assay: Fluorescence (ANS) competition binding assay, FABP7. Particulars: ANS displacement. The method in brief:
as §1

The target of the next assay is PPARδ (Homo sapiens (Human), UniProt Q03181). Nature of the assay: Transcriptional activation assay in COS7 cells, PPARδ. It is filed as cell-based. Particulars: PPRE luciferase reporter, PD151 and PD152 at 10 μM. As for the experimental part:
COS-7 were cultured in 6-well plates and co-transfected with either a luciferase reporter driven by 3 copies of a PPRE and expression vector for either PPARδ, PPARα or PPARγ together with a vector harboring cDNA for β-galactosidase, serving as a transfection control. To test whether FABP4 or FABP5 mediate activation of their cognate receptors PPARγ and PPARδ, respectively, cells were also co-transfected with a plasmid harboring sequence of either FABP4 or FABP5. 18 h post-transfection, cells were placed in a serum-free medium and treated with agonist/compound. 18 h. later, cells were lysed, luciferase activity was assayed (Promega, WI, USA) and corrected for transfection efficiency by the activity of β-galactosidase.
Transcriptional activation assays were carried out utilizing COS7 cells as described above.

For another assay, the system named is MB-231 cells. Nature of the assay: Proliferation assay (Incucyte confluency), MB-231. In kind it is cell-based. The settings on record: Homo sapiens, 96 h, 4 days, read-out: IC50, inhibition of proliferation. As for the experimental part: (§2) COS-7, MDA-MB-231, and HepG2, were cultured in Dulbecco's modified Eagle's medium (DMEM) supplemented with 10% fetal bovine serum (Invitrogen Life Sciences, Carlsbad, CA). BT-549, OVCAR5 and OVCAR8 cells were cultured in L-Glutamine containing RPMI medium supplemented with 10% fetal calf serum (Invitrogen Life Sciences, Carlsbad, CA). The primary Human Mammary Epithelial Cells (HMEC) were cultured in mammary epithelial cell complete medium (basal medium plus rH-Insulin (5 μg/mL); L-Glutamine (6 mM); Epinephrine (1 μM); Apo-Transferrin (5 μg/mL); rH-TGF-α (0.5 ng/mL); ExtractP (0.4%); Hydrocortisone Hemisuccinate (100 ng/mL)).
(§3) 2000 cells were plated in each well of 96-well plate. The next day cells were treated with compounds and incubated in Incucyte for 4 days. Images taken every 4 hours for the duration of the time were analyzed to calculate percentage of confluency in response to the treatments. Growth inhibition was calculated as 1—(percentage of viable cells out of untreated cells).

A further assay concerns BT-549 cells. Nature of the assay: Proliferation assay (Incucyte confluency), BT-549. It is filed as cell-based. The settings on record: Homo sapiens, 96 h, 4 days, read-out: IC50, inhibition of proliferation. As to the method:
as §2, §3

Assay [1] relates to normal human mammary epithelial cells (HMEC). Nature of the assay: Proliferation assay (Incucyte confluency), HMEC. In kind it is cell-based. As for the experimental part: as §2, §3
Another assay concerns OVCAR5 cells. Nature of the assay: Proliferation assay (Incucyte confluency), OVCAR5. It is filed as cell-based, human. The settings on record: 4 days. As for the experimental part:
as §2, §3

The subject of another assay is HepG2 cells. Nature of the assay: Lipid uptake assay (Nile Red), in vitro liver steatosis model. In kind it is cell-based. As for the experimental part: HepG2 cells: 5000 cells were plated in 96-well plate. The next day cells were treated with tested compounds for 4 hours and then treated with 1 mM oleic acid for additional 24 hours. Cells were then stained with Nile Red and lipid content was measured using Spectra Max i3X plate reader (Molecular Devices) and quantified with the SoftMax Pro 6 software.

Molecules are shown by their SMILES. Entries after “also recorded” stand apart in the source; their conditions may differ.

PPARδ, sequence (Q03181 whole entry, species assumed): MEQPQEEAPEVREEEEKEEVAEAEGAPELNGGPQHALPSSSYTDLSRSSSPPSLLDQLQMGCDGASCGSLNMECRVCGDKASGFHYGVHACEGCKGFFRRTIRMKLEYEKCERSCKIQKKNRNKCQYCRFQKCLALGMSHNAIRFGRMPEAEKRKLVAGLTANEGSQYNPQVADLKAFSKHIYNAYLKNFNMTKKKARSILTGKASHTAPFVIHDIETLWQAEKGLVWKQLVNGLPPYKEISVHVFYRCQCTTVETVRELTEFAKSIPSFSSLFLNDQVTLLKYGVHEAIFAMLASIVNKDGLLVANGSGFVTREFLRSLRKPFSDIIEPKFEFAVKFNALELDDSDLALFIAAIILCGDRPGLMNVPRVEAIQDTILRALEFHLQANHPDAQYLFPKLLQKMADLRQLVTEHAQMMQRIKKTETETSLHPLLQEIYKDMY
FABP7, sequence (O15540 whole entry, species assumed): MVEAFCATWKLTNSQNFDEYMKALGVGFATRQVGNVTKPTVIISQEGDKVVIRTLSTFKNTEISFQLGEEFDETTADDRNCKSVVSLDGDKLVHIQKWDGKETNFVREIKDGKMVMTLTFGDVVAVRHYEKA
FABP4, sequence (P15090 whole entry, species assumed): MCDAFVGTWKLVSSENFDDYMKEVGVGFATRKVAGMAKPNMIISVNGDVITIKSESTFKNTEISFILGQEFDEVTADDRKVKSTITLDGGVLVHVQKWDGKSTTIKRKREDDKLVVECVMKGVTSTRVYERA
FABP5, sequence (Q01469 whole entry, species assumed): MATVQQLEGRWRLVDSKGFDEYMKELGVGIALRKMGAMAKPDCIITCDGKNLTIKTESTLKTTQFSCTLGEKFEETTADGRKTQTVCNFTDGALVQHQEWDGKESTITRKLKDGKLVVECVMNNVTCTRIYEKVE

Usually Kd stands for a measure of binding affinity in units of concentration. Read a high Kd as a looser complex. For the compound `CC(C)Oc1nc(NC(=O)CSCC(=O)O)c(Cl)cc1Cl` [PD152, 2-((2-((3,5-dichloro-6-isopropoxypyridin-2-yl)amino)-2-oxoethyl)thio)acetic acid], the Kd on FABP5 came to 28 nM; on FABP4, 18 nM; on FABP3, 188 nM; on FABP7, 989 nM. On PPARδ, the “Activation of transcription by PPARδ” value was “None of these tested compounds activated; also recorded: none of the tested compounds PD151 and PD152 activated transcription”. Also, the IC50 with MB-231 cells came out at 603 nM; in the assay with BT-549 cells it was 1040 nM; in assay [1] (Homo sapiens, 96 h, HMEC cells, 4 days, read-out: IC50, inhibition of proliferation) it was 319000 nM; in the assay on HepG2 cells (Homo sapiens, compound 4 h then oleic acid 1 mM 24 h, Nile Red, read-out: IC50 for inhibition of lipid uptake), 553 nM. Also, in assay [1] (HMEC cells, 4 days), the “Concentrations at which proliferation of HMEC cells was inhibited” value was above 125 µM. Moreover, the “Fold lower efficacy in HMEC than in BT-549 cells” value in assay [1] (IC50 HMEC vs BT-549) is listed as 305 fold. For the same compound, the “Fold lower efficacy in HMEC than in MB-231 cells” value in assay [1] (IC50 HMEC vs MB-231) was found to be 532 fold. Also, the “Inhibition of OVCAR5 proliferation” value in the assay with OVCAR5 cells was “inhibited proliferation of the two cell lines in a dose-dependent manner”. In addition, the “Treatment concentrations at which lipid uptake was markedly inhibited” value in the assay with HepG2 cells (oleic acid 1 mM) was above 0.2 µM.
